Results on one molecule are retold here after US20120071322A1, “Substituted Pyridopyrazines with a Herbicidal Action” (BASF SE, priority 2009, published 2012).

For one assay, the system named is SETIT. Briefly: greenhouse experiment, pre-emergence treatment. It is filed as in vivo, Setaria italica. As to conditions: pre-emergence method, application rate 3.0 kg/ha, scale from 0 to 100. The source says: The seeds of the test plants were sown separately for each species. For the pre-emergence treatment, the active compounds, which had been suspended or emulsified in water, were applied directly after sowing by means of finely distributing nozzles. The containers were irrigated gently to promote germination and growth and subsequently covered with transparent plastic hoods until the plants had rooted. This cover caused uniform germination of the test plants, unless this has been impaired by the active compounds. Depending on the species, the plants were kept at 10-25° C. or 20-35° C. The test period extended over 2 to 4 weeks. During this time, the plants were tended, and their response to the individual treatments was evaluated. Evaluation was carried out using a scale from 0 to 100. 100 means no emergence of the plants, or complete destruction of at least the aerial moieties, and 0 means no damage, or normal course of growth. A good herbicidal activity is given at values of at least 70 and a very good herbicidal activity is given at values of at least 85. [table]

The test system of the next assay is AVEFA. Put plainly: greenhouse experiment, post-emergence treatment. To be noted: post-emergence method, application rate 3.0 kg/ha, scale from 0 to 100. It is filed as in vivo, Avena fatua. The source says:
(§1) The seeds of the test plants were sown separately for each species. For the post-emergence treatment, the test plants were first grown to a height of 3 to 15 cm, depending on the plant habit, and then treated with the active compounds which had been suspended or emulsified in water. For this purpose, the test plants were either sown directly and grown in the same containers, or they were first grown separately as seedlings and transplanted into the test containers a few days prior to treatment. Depending on the species, the plants were kept at 10-25° C. or 20-35° C. The test period extended over 2 to 4 weeks. During this time, the plants were tended, and their response to the individual treatments was evaluated. Evaluation was carried out using a scale from 0 to 100. 100 means no emergence of the plants, or complete destruction of at least the aerial moieties, and 0 means no damage, or normal course of growth. A good herbicidal activity is given at values of at least 70 and a very good herbicidal activity is given at values of at least 85. [table]

The test system of a further assay is ABUTH. Briefly: greenhouse experiment, post-emergence treatment. It is filed as in vivo, Abutilon theophrasti. As to conditions: post-emergence method, application rate 3.0 kg/ha, scale from 0 to 100.
Excerpt: as §1

The next assay deals with SETFA. Put plainly: greenhouse experiment, post-emergence treatment. It is filed as in vivo, Setaria faberi. To be noted: post-emergence method, application rate 3.0 kg/ha, scale from 0 to 100.
Excerpt: as §1

For `O=c1oc2nccnc2c(O)c1-c1ccccc1C(F)(F)F` [example 1, 8-Hydroxy-7-(2-trifluoromethylphenyl)pyrano[2,3-b]pyrazin-6-one], in the assay with SETIT, the “herbicidal activity against SETIT” value is on record as “very good herbicidal activity (a very good herbicidal activity is given at values of at least 85)”. Also, the “herbicidal activity against AVEFA” value in the assay with AVEFA was “good herbicidal activity (A good herbicidal activity is given at values of at least 70)”. In addition, the “herbicidal activity against ABUTH” value in the assay with ABUTH is reported as “good herbicidal activity (A good herbicidal activity is given at values of at least 70)”. Moreover, in the assay on SETFA, the “herbicidal activity against SETFA” value is “good herbicidal activity (A good herbicidal activity is given at values of at least 70)”.
